In US9969710B2, “Heteroaryl compounds as IRAK inhibitors and uses thereof” (Merck Patent GmbH, priority 2015, dated 2018):

Tests used:
IRAK1 = molecular target: T1, IRAK1 (Homo sapiens, UniProt P51617); assay: IRAK1 enzymatic assay (ADP-Glo luminescence); format: biochemical; conditions: human recombinant His-TEV-IRAK1 (194-712), ATP 1 μM; read-out: IRAK 1 IC50
T1 construct: His-TEV-IRAK1 (194-712); His (N); TEV cleavage site (N)
Description: IRAK1 is a human purified recombinant enzyme (His-TEV-IRAK1 (194-712))
In this assay, IRAK1 hydrolyses ATP and autophosphorylates. Measurement of IRAK-1 inhibition is performed in 384-well format based on luminescence assay (ADP-Glo™ Kinase Assay from Promega). Purified human recombinant IRAK1 ([…]) and serial diluted compounds in DMSO (range of concentration from 10 μM to 0.5 nM) or controls (1% DMSO) are incubated for 15 minutes at RT in assay buffer containing 50 mM Hepes pH 7.0, Fatty acid-free BSA 0.1%, Dithiothreitol (DTT) 2 mM, MgCl2 10 mM, EGTA 0.5 mM, Triton X-100 0.01%. The kinase reaction is then initiated by the addition of ATP at a concentration of 1 μM. After 2 hours of incubation at RT, the reaction is stopped and the unconsumed ATP depleted by the addition of ADP-Glo™ Reagent according to supplier instructions. After 40 minutes of incubation at RT, the Kinase Detection Reagent is then added to the assay plate according to supplier instructions. After 20 minutes of incubation at RT, the luminescence signal is measured with a luminometer (PerkinElmer Envision or equivalent reader).

IRAK4 = molecular target: T2, IRAK4 (Homo sapiens, UniProt Q9NWZ3); assay: IRAK4 enzymatic assay (ADP-Glo luminescence); format: biochemical; conditions: human recombinant His-TEV-IRAK4 (1-460), STK1-biotin peptide substrate
T2 construct: His-TEV-IRAK4 (1-460); His (N); TEV cleavage site (N)
T2 sequence (Q9NWZ3 1-460): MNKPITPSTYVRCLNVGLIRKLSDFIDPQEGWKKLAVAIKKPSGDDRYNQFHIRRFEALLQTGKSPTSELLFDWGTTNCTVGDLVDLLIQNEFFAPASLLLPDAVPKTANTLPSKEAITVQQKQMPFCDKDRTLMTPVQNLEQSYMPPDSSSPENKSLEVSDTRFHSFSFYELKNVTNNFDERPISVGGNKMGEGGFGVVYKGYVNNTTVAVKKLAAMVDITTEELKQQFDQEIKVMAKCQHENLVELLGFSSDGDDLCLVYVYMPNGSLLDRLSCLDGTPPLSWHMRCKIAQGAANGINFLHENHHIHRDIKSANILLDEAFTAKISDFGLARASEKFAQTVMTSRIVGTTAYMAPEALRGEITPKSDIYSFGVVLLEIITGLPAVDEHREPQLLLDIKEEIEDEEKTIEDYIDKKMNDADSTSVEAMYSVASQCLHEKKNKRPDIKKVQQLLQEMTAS
Description: IRAK4 is a human purified recombinant enzyme (His-TEV-IRAK4 (1-460)).
In this assay, IRAK4 hydrolyses ATP, autophosphorylates and phosphorylates a Serine/Threonine generic peptidic substrate (STK: 61ST1BLC from CisBio International). Measurement of IRAK-4 inhibition is performed in 384-well format based on a luminescence assay (ADP-Glo™ Kinase Assay from Promega). Purified human recombinant IRAK4 ([…]) and serial diluted compounds in DMSO (range of concentration from 10 μM to 0.5 nM) or controls (1% DMSO) are incubated for 15 minutes at RT in assay buffer containing 50 mM Hepes pH 7.0, Fatty acid-free BSA 0.1%, Dithiothreitol (DTT) 2 mM, MgCl2 10 mM, EGTA 0.5 mM, Triton X-100 0.01%, MnCl2 5 mM. The kinase reaction is then initiated by the addition of ATP ([…]) and the peptidic substrate STK1-biotin peptide (300 nM). After 2 hours of incubation at RT, the reaction is stopped and the unconsumed ATP depleted by the addition of ADP-Glo™ Reagent according to supplier instructions. After 40 minutes of incubation at RT, the Kinase Detection Reagent is then added to the assay plate according to supplier instructions. After 20 minutes of incubation at RT, the luminescence signal is measured with a plate-reading luminometer (PerkinElmer Envision or equivalent reader).

[1] = test system: TLR7 induced IL-6 secretion in human mononuclear cells (PBMC's); assay: TLR7 induced IL-6 in human PBMC's; format: cell-based; conditions: TLR7 specific ligand 2 uM overnight, IL-6 AlphaLISA
Description: TLR7 Induced IL-6 in Human PBMC's
Human PBMC assay was used as one of the functional assaya to monitor the activity of IRAK1 and IRAK4 small molecule inhibitors on TLR7 induced IL-6 secretion in human mononuclear cells (PBMC's). Human PBMCs were prepared from buffy coats (whole blood enriched with leukocytes and platelets) obtained from healthy volunteers used either fresh or frozen are plated in assay media (RPMI+2% P/S/L-glu+10% HI-FBS) and pre-treated with compounds in DMSO/media (range of concentrations from 25 uM to 0.4 nM) or controls (0.25% DMSO) for 30 minutes at 37° C. in assay media. Following pre-treatment with IRAK1 and IRAK4 inhibitors, PBMC's were stimulated with TLR7 specific ligand (2 uM) overnight (16-18 hrs) at 37° C. After incubation supernatant was transferred to 384 well PE AlphaPlate-384 (6005350) and IL-6 is quantified using Perkin Elmer IL-6 Alpha LISA kit (AL223C). Plates were read on an Envision® plate reader with Alpha Technology®.

T1 sequence (P51617 194-712): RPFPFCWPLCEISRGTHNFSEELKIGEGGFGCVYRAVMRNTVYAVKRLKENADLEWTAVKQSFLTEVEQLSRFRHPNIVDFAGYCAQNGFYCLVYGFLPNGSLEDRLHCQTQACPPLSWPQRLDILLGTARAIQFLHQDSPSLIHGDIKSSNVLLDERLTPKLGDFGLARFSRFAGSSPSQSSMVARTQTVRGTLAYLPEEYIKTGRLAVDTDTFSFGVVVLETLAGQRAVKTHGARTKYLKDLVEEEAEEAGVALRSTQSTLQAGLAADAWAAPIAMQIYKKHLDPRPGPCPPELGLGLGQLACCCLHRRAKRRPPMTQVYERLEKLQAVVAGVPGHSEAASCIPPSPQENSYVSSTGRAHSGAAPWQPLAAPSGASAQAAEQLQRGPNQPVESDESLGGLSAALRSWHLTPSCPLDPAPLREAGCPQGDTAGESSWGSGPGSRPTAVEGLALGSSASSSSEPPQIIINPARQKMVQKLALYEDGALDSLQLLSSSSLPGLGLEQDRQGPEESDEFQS

Row | Compound | IC50 (IRAK1) [nM] | IC50 (IRAK4) [nM] | IC50 ([1]; Homo sapiens, PBMC) [nM] | IC50 [1] [nM]
1 | CN1CCC[C@@H](c2ccc3c(c2)[nH]/c(=N\C(=O)c2cccc(C(F)F)c2)n3C[C@](C)(F)CO)C1=O (single isomer, unassigned) [Compound 3b] | 1000 to 10000 | ≤ 100 | 100 to 1000 | 
2 | CN1CCC[C@H](c2ccc3c(c2)[nH]/c(=N\C(=O)c2cccc(C(F)F)c2)n3C[C@](C)(F)CO)C1=O (single isomer, unassigned) [Compound 3c] | 100 to 1000 | ≤ 100 | ≤ 100 | 
3 | CN1CCC(c2ccc3c(c2)[nH]/c(=N\C(=O)c2cccc(C(F)(F)F)c2)n3CC(O)CO)C1=O (single isomer, unassigned) [Compound 20a] | 100 to 1000 | ≤ 100 |  | 100 to 1000
4 | CN1CCC(c2ccc3c(c2)[nH]/c(=N\C(=O)c2cccc(C(F)(F)F)c2)n3CC(O)CO)C1=O (single isomer, unassigned) [Compound 20b] | 100 to 1000 | ≤ 100 |  | 1000 to 10000
5 | CN1CCC(c2ccc3c(c2)[nH]/c(=N\C(=O)c2cccc(C(F)(F)F)c2)n3CCC(O)CO)C1=O (single isomer, unassigned) [Compound 21a] | 100 to 1000 | ≤ 100 | 100 to 1000 | 
6 | CN1CCC(c2ccc3c(c2)[nH]/c(=N\C(=O)c2cccc(C(F)(F)F)c2)n3CCC(O)CO)C1=O (single isomer, unassigned) [Compound 21b] | 100 to 1000 | ≤ 100 |  | 100 to 1000
7 | CN1CCC(c2ccc3c(c2)[nH]/c(=N\C(=O)c2cccc(C(F)(F)F)c2)n3CCC(O)CO)C1=O (single isomer, unassigned) [Compound 21c] | 100 to 1000 | ≤ 100 |  | ≤ 100
8 | CN1CCC(c2ccc3c(c2)[nH]/c(=N\C(=O)c2cccc(C(F)(F)F)c2)n3CCC(O)CO)C1=O (single isomer, unassigned) [Compound 21d] | ≤ 100 | ≤ 100 |  | 100 to 1000
9 | CN1CCCC(c2ccc3c(c2)[nH]/c(=N\C(=O)c2cccc(C(F)(F)F)c2)n3CCC(O)CO)C1=O (single isomer, unassigned) [Compound 22a] | 100 to 1000 | ≤ 100 |  | ≤ 100
10 | CN1CCCC(c2ccc3c(c2)[nH]/c(=N\C(=O)c2cccc(C(F)F)c2)n3C[C@](C)(F)CO)C1=O (stereo partly drawn) [Compound 2a, (E)-3-(difluoromethyl)-N-(1-((S)-2-fluoro-3-hydroxy-2-methylpropyl)-5-(1-methyl-2-oxopiperidin-3-yl)-1H-benzo[d]imidazol-2(3H)-ylidene)benzamide] | 100 to 1000 | ≤ 100 |  | 
11 | Cn1cccc(-c2ccc3c(c2)[nH]/c(=N\C(=O)c2cccc(C(F)(F)F)c2)n3CCCO)c1=O [Compound 4, (E)-N-(1-(3-hydroxypropyl)-5-(1-methyl-2-oxo-1,2-dihydropyridin-3-yl)-1H-benzo[d]imidazol-2(3H)-ylidene)-3-(trifluoromethyl)benzamide] | 100 to 1000 | ≤ 100 |  | 
12 | Cc1ccn(C)c(=O)c1-c1ccc2c(c1)[nH]/c(=N\C(=O)c1cccc(C(F)(F)F)c1)n2CCCO [Compound 6, (E)-N-(5-(1,4-dimethyl-2-oxo-1,2-dihydropyridin-3-yl)-1-(3-hydroxypropyl)-1H-benzo[d]imidazol-2(3H)-ylidene)-3-(trifluoromethyl)benzamide] | 100 to 1000 | ≤ 100 |  | 
13 | O=C(/N=c1\[nH]c2cc(C3CCCCC3=O)ccc2n1CCCO)c1cccc(C(F)(F)F)c1 (stereo not drawn) [Compound 8, (E)-N-(1-(3-hydroxypropyl)-5-(2-oxocyclohexyl)-1H-benzo[d]imidazol-2(3H)-ylidene)-3-(trifluoromethyl)benzamide] | ≤ 100 | ≤ 100 |  | 
14 | O=C1C=C(c2ccc3c(c2)[nH]/c(=N\C(=O)c2cccc(C(F)(F)F)c2)n3CCCO)CO1 [Compound 9, (E)-N-(1-(3-hydroxypropyl)-5-(5-oxo-2,5-dihydrofuran-3-yl)-1H-benzo[d]imidazol-2(3H)-ylidene)-3-(trifluoromethyl)benzamide] | 100 to 1000 | ≤ 100 |  | 
15 | O=C(/N=c1\[nH]c2cc(C3(O)COC3)ccc2n1CCCO)c1cccc(C(F)(F)F)c1 [Compound 11, (E)-N-(5-(3-hydroxyoxetan-3-yl)-1-(3-hydroxypropyl)-1H-benzo[d]imidazol-2(3H)-ylidene)-3-(trifluoromethyl)benzamide] | 1000 to 10000 | ≤ 100 |  | 

The next lines start with results.

Row | IC50 (IRAK1) [nM] | IC50 (IRAK4) [nM] | Compound | IC50 ([1]; Homo sapiens, PBMC) [nM] | IC50 [1] [nM]
16 | ≤ 100 | ≤ 100 | CN1CCCC(c2ccc3c(c2)[nH]/c(=N\C(=O)c2cccc(C(F)(F)F)c2)n3CCC(O)CO)C1=O (single isomer, unassigned) [Compound 22b] |  | ≤ 100
17 | 100 to 1000 | ≤ 100 | CN1CCCC(c2ccc3c(c2)[nH]/c(=N\C(=O)c2cccc(C(F)(F)F)c2)n3CCC(O)CO)C1=O (single isomer, unassigned) [Compound 22c] |  | 1000 to 10000
18 | 100 to 1000 | ≤ 100 | CN1CCCC(c2ccc3c(c2)[nH]/c(=N\C(=O)c2cccc(C(F)(F)F)c2)n3CCC(O)CO)C1=O (single isomer, unassigned) [Compound 22d] |  | 100 to 1000
19 | 100 to 1000 | ≤ 100 | CN1CCC(c2ccc3c(c2)nc(NC(=O)c2cccc(C(F)(F)F)c2)n3CCCO)C1=O (single isomer, unassigned) [Compound 23a] | ≤ 100 | 
20 | ≤ 100 | ≤ 100 | CN1CC(c2ccc3c(c2)nc(NC(=O)c2cccc(C(F)(F)F)c2)n3CCCO)C(C)(C)C1=O (single isomer, unassigned) [Compound 25a] | 100 to 1000 | 
21 | ≤ 100 | ≤ 100 | CN1CC(c2ccc3c(c2)nc(NC(=O)c2cccc(C(F)F)c2)n3CCCO)C(C)(C)C1=O (single isomer, unassigned) [Compound 27a] | 100 to 1000 | 
22 | 100 to 1000 | ≤ 100 | CN1CC(c2ccc3c(c2)nc(NC(=O)c2cccc(C(F)F)c2)n3CCCO)C(C)(C)C1=O (single isomer, unassigned) [Compound 27b] |  | 100 to 1000
23 | 1000 to 10000 | ≤ 100 | CN1CCC(C)(c2ccc3c(c2)nc(NC(=O)c2cccc(C(F)(F)F)c2)n3CCCO)C1=O (single isomer, unassigned) [Compound 29a] |  | 1000 to 10000
24 | 100 to 1000 | ≤ 100 | CN1CCC(C)(c2ccc3c(c2)nc(NC(=O)c2cccc(C(F)(F)F)c2)n3CCCO)C1=O (single isomer, unassigned) [Compound 29b] |  | 100 to 1000
